{"source": "patent US7094909B2", "about": "“HIV protease inhibitors, compositions containing the same, their pharmaceutical uses and materials for their synthesis” (priority 2001, dated 2006)", "key": {"[1]": {"target": "T1, HIV-1 protease (Q7S mutant form) (Human immunodeficiency virus type 1 group M subtype B, UniProt P04585, Q495S)", "T1 construct": "made in house", "test": "HIV-1 Protease RET assay", "assay_type": "biochemical", "details": "Ave. Ki (nM), RET assay, Q7S enzyme, Morrison tight binding fit", "how_it_was_run": "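Ki values fitted with the Morrison tight-binding equation from steady-state RET cleavage (ex 340, em 490 nm) of 5 μM RE(EDANS)SQNYPIVQK(DABCYL)R. Buffer pH 4.8 acetate, 1M NaCl, 5 mM DTT, 1 mg/ml BSA, 10% DMSO; 2 nM Q7S mutant dimer, 37 °C, 12 min.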"}, "[2]": {"system": "HIV-1 (HIV-1 RF, HIV-1 NL4-3) in CEM-SS / MT-2 cells", "test": "Cytopathic effect (CPE) inhibition assay (XTT/MTT dye reduction)", "assay_type": "cell-based", "details": "Human immunodeficiency virus 1, NL43; read-out: Ave CPE EC50", "how_it_was_run": "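Readout is XTT reduction (A450, 4 h) after six days of culturing virus-infected (moi 0.025–0.819) or mock-infected CEM-SS/MT-2 cells, 2×10^4 per well, with half-log compound series. Antiviral EC50 and cytotoxic CC50 are relative to uninfected compound-free cells. Therapeutic index is CC50 divided by EC50.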"}}, "data": [{"smiles": "C=CCNC(=O)[C@H]1N(C(=O)[C@@H](O)[C@H](Cc2ccccc2)NC(=O)O[C@H]2CCOC2)CSC1(C)C", "note": "[Example B22, [(1S,2S)-3-((R)-4-Allylcarbamoyl-5,5-dimethyl-thiazolidin-3-yl)-1-benzyl-2-hydroxy-3-oxo-propyl]-carbamic acid (S)-(tetrahydro-furan-3-yl) ester]", "values": [{"measurement": "Ki", "setting": "[1]", "value": 12, "unit": "nM"}, {"measurement": "EC50", "setting": "[2]", "value": 246, "unit": "nM"}]}, {"smiles": "C=CCNC(=O)[C@H]1N(C(=O)[C@@H](O)[C@H](Cc2ccccc2)NC(=O)COc2c(C)cccc2C)CSC1(C)C", "note": "[Example B23, (R)-3-{(2S,3S)-3-[2-(2,6-Dimethyl-phenoxy)-ethanoylamino]-2-hydroxy-4-phenyl-butanoyl}-5,5-dimethyl-thiazolidine-4-carboxylic acid allylamide]", "values": [{"measurement": "Ki", "setting": "[1]", "value": 0.15, "unit": "nM"}, {"measurement": "EC50", "setting": "[2]", "value": 294, "unit": "nM"}]}, {"smiles": "C=CCNC(=O)[C@H]1N(C(=O)[C@@H](O)[C@H](Cc2ccccc2)NC(=O)c2cccc3[nH]ncc23)CSC1(C)C", "note": "[Example B24, 1-H-indazole-4-carboxylic acid [3-(4-allylcarbamoyl-5,5-dimethyl-thiazolidin-3-yl)-1-benzyl-2-hydroxy-3-oxo-propyl]-amide]", "values": [{"measurement": "Ki", "setting": "[1]", "value": 8.3, "unit": "nM"}, {"measurement": "EC50", "setting": "[2]", "value": 512, "unit": "nM"}]}, {"smiles": "C=CCNC(=O)[C@H]1N(C(=O)[C@@H](O)[C@H](Cc2ccccc2)NC(=O)CSc2nc[nH]n2)CSC1(C)C", "note": "[Example B25, (R)-3-{(2S,3S)-2-Hydroxy-4-phenyl-3-[2-(1H-[1,2,4]triazol-3-ylsulfanyl)-ethanoylamino]-butanoyl}-5,5-dimethyl-thiazolidine-4-carboxylic acid allylamide]", "values": [{"measurement": "Ki", "setting": "[1]", "value": 21, "unit": "nM"}, {"measurement": "EC50", "setting": "[2]", "value": "> 1000", "unit": "nM"}]}, {"smiles": "CC1(C)SCN(C(=O)[C@@H](O)[C@H](Cc2ccccc2)NC(=O)O[C@H]2CCOC2)[C@@H]1C(=O)NCC1CC1", "note": "[Example B26, {(1S,2S)-1-Benzyl-3-[(R)-4-(cyclopropylmethyl-carbamoyl)-5,5-dimethyl-thiazolidin-3-yl]-2-hydroxy-3-oxo-propyl}-carbamic acid (S)-(tetrahydro-furan-3-yl) ester]", "values": [{"measurement": "Ki", "setting": "[1]", "value": 2.1, "unit": "nM"}, {"measurement": "EC50", "setting": "[2]", "value": 348, "unit": "nM"}]}, {"smiles": "Cc1cccc(C)c1OCC(=O)N[C@@H](Cc1ccccc1)[C@H](O)C(=O)N1CSC(C)(C)[C@H]1C(=O)NCC1CC1", "note": "[Example B27, (R)-3-{(2S,3S)-3-[2-(2,6-Dimethyl-phenoxy)-ethanoylamino]-2-hydroxy-4-phenyl-butanoyl}-5,5-dimethyl-thiazolidine-4-carboxylic acid cyclopropylmethyl-amide]", "values": [{"measurement": "Ki", "setting": "[1]", "value": 0.5, "unit": "nM"}, {"measurement": "EC50", "setting": "[2]", "value": 506, "unit": "nM"}]}, {"smiles": "CC1(C)SCN(C(=O)[C@@H](O)[C@H](Cc2ccccc2)NC(=O)c2cccc3c2CCN3)[C@@H]1C(=O)NCC1CC1", "note": "[Example B28, 2,3-Dihydro-1H-indole-4-carboxylic acid {(1S,2S)-1-benzyl-3-[(R)-4-(cyclopropylmethyl-carbamoyl)-5,5-dimethyl-thiazoldin-3-yl]-2-hydroxy-3-oxo-propyl}-amide]", "values": [{"measurement": "Ki", "setting": "[1]", "value": 4.2, "unit": "nM"}, {"measurement": "EC50", "setting": "[2]", "value": 731, "unit": "nM"}]}, {"smiles": "CC1(C)SCN(C(=O)[C@@H](O)[C@H](Cc2ccccc2)NC(=O)c2cccc3c2CCN3)[C@@H]1C(=O)N[C@H]1CCOc2ccccc21", "note": "[Example B29, 2,3-Dihydro-1H-indole-4-carboxylic acid {(1S,2S)-1-benzyl-3-[(R)-4-((S)-chroman-4-ylcarbamoyl)-5,5-dimethyl-thiazolidin-3-yl]-2-hydroxy-3-oxo-propyl}-amide]", "values": [{"measurement": "Ki", "setting": "[1]", "value": 0.82, "unit": "nM"}, {"measurement": "EC50", "setting": "[2]", "value": 63, "unit": "nM"}]}, {"smiles": "CC1(C)SCN(C(=O)[C@@H](O)[C@H](Cc2ccccc2)NC(=O)CSc2nc[nH]n2)[C@@H]1C(=O)N[C@H]1CCOc2ccccc21", "note": "[Example B31, (R)-3-{(2S,3S)-2-Hydroxy-4-phenyl-3-[2-(1H-[1,2,4]triazol-3-ylsulfanyl)-ethanoylamino]-butanoyl}-5,5-dimethyl-thiazolidine-4-carboxylic acid (S)-chroman-4-ylamide]", "values": [{"measurement": "Ki", "setting": "[1]", "value": 4.7, "unit": "nM"}, {"measurement": "EC50", "setting": "[2]", "value": "> 1000", "unit": "nM"}]}, {"smiles": "C#CCNC(=O)[C@H]1N(C(=O)[C@@H](O)[C@H](Cc2ccccc2)NC(=O)c2cccc3c2CCN3)CSC1(C)C", "note": "[Example B34, 2,3-Dihydro-1H-indole-4-carboxylic acid [(1S,2S)-1-benzyl-3-((R)-5,5-dimethyl-4-prop-2-ynylcarbamoyl-thiazoldin-3-yl)-2-hydroxy-3-oxo-propyl]-amide]", "values": [{"measurement": "Ki", "setting": "[1]", "value": 1.2, "unit": "nM"}, {"measurement": "EC50", "setting": "[2]", "value": 389, "unit": "nM"}]}, {"smiles": "C#CCNC(=O)[C@H]1N(C(=O)[C@@H](O)[C@H](Cc2ccccc2)NC(=O)c2cccc3[nH]ncc23)CSC1(C)C", "note": "[Example B35, 1-H-indazole-4-carboxylic acid [1-benzyl-3-(5,5-dimethyl-4-prop-2-ynylcarbamoyl-thiazolidin-3-yl)-2-hydroxy-3-oxo-propyl]-amide]", "values": [{"measurement": "Ki", "setting": "[1]", "value": 11, "unit": "nM"}, {"measurement": "EC50", "setting": "[2]", "value": 564, "unit": "nM"}]}, {"smiles": "C#CCNC(=O)[C@H]1N(C(=O)[C@@H](O)[C@H](Cc2ccccc2)NC(=O)COc2c(C)cccc2C)CSC1(C)C", "note": "[Example B36, (R)-3-{(2S,3S)-3-[2-(2,6-Dimethyl-phenoxy)-ethanoylamino]-2-hydroxy-4-phenyl-butanoyl}-5,5-dimethyl-thiazolidine-4-carboxylic acid prop-2-ynylamide]", "values": [{"measurement": "Ki", "setting": "[1]", "value": "< 0.1", "unit": "nM"}, {"measurement": "EC50", "setting": "[2]", "value": 519, "unit": "nM"}]}, {"smiles": "CC1(C)SCN(C(=O)[C@@H](O)[C@H](Cc2ccccc2)NC(=O)c2cccc3[nH]ncc23)[C@@H]1C(=O)NCc1ccco1", "note": "[Example B37, 1-H-indazole-4-carboxylic acid (1-benzyl-3-{4[(furan-2-ylmethyl)-carbamoyl]-5,5-dimethyl-thiazolidin-3-yl}-2-hydroxy-3-oxo-propyl)-amide]", "values": [{"measurement": "Ki", "setting": "[1]", "value": 7.4, "unit": "nM"}, {"measurement": "EC50", "setting": "[2]", "value": 529, "unit": "nM"}]}, {"smiles": "Cc1cccc(C)c1OCC(=O)N[C@@H](Cc1ccccc1)[C@H](O)C(=O)N1CSC(C)(C)[C@H]1C(=O)NCc1ccco1", "note": "[Example B38, (R)-3-{(2S,3S)-3-[2-(2,6-Dimethyl-phenoxy)-ethanoylamino]-2-hydroxy-4-phenyl-butanoyl}-5,5-dimethyl-thiazolidine-4-carboxylic acid (furan-2-ylmethyl)-amide]", "values": [{"measurement": "Ki", "setting": "[1]", "value": 0.16, "unit": "nM"}, {"measurement": "EC50", "setting": "[2]", "value": 600, "unit": "nM"}]}, {"smiles": "CC1(C)SCN(C(=O)[C@@H](O)[C@H](Cc2ccccc2)NC(=O)c2cccc3c2CCN3)[C@@H]1C(=O)NCc1ccco1", "note": "[Example B39, 2,3-Dihydro-1H-indole-4-carboxylic acid ((1S,2S)-1-benzyl-3-{(R)-4-[(furan-2-ylmethyl)-carbamoyl]-5,5-dimethyl-thiazolidin-3-yl}-2-hydroxy-3-oxo-propyl)-amide]", "values": [{"measurement": "Ki", "setting": "[1]", "value": 1.9, "unit": "nM"}, {"measurement": "EC50", "setting": "[2]", "value": 372, "unit": "nM"}]}, {"smiles": "CC1(C)SCN(C(=O)[C@@H](O)[C@H](Cc2ccccc2)NC(=O)[C@@H]2CCCO2)[C@@H]1C(=O)NCc1ccco1", "note": "[Example B40, (R)-3-{(2S,3S)-2-Hydroxy-4-phenyl-3-[((S)-1-tetrahydro-furan-2-yl-methanoyl)-amino]-butanoyl}-5,5-dimethyl-thiazolidine-4-carboxylic acid (furan-2-ylmethyl)-amide]", "values": [{"measurement": "Ki", "setting": "[1]", "value": 15.1, "unit": "nM"}, {"measurement": "EC50", "setting": "[2]", "value": "> 1000", "unit": "nM"}]}, {"smiles": "CC1(C)SCN(C(=O)[C@@H](O)[C@H](Cc2ccccc2)NC(=O)c2cccc3c2CCN3)[C@@H]1C(=O)N[C@@H]1C=CCCC1", "note": "[Example B41, 2,3-Dihydro-1H-indole-carboxylic acid {(1S,2S)-1-benzyl-3-[(R)-4-((S)-cyclohex-2-enylcarbamoyl)-5,5-dimethyl-thiazolidin-3-yl]-2-hydroxy-3-oxo-propyl}-amide]", "values": [{"measurement": "Ki", "setting": "[1]", "value": 0.11, "unit": "nM"}, {"measurement": "EC50", "setting": "[2]", "value": 268, "unit": "nM"}]}]}
